This is an account of results in patent US20240368065A1 (HELMHOLTZ-ZENTRUM FÜR INFEKTIONSFORSCHUNG GMBH, priority 2021, published 2024).

In one data set the target is T1, purified hACOD1 (Homo sapiens, UniProt A6NK06).
T1 construct: made in house
T1 sequence (A6NK06 1-481): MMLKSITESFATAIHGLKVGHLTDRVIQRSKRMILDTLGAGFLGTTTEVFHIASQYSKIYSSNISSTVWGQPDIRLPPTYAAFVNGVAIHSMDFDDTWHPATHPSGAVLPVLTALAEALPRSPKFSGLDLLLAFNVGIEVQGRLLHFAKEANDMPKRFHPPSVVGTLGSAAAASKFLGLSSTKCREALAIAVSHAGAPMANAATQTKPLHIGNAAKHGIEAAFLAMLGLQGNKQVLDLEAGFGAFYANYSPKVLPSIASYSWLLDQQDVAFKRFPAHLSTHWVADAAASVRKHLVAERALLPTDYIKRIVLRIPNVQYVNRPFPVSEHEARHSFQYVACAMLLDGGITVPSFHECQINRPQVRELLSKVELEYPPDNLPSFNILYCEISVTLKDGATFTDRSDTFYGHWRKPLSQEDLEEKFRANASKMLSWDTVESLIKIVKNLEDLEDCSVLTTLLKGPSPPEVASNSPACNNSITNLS
The experiment in a line: hACOD1 enzyme activity in vitro assay, competitive inhibition. In kind it is biochemical. As to conditions: purified hACOD1, substrate cis-aconitate, competitive inhibition fit, pH 6.5, 37° C.; read-out: Inhibition constant (Ki). As for the experimental part:
The activity of purified hACOD1 was measured in the presence of increasing concentrations of substrate and the five inhibitors. The data were globally fitted to the Michaelis-Menten equation for competitive inhibition.
The activity of purified hACOD1 was measured in the presence of increasing concentrations of substrate and the five inhibitors. The data was globally fitted to the Michaelis-Menten equation for competitive inhibition.
The compounds were dissolved in water, neutralized with NaOH and stored at −20° C. For the assay, 125 μL 0.2 M sodium phosphate buffer, pH 6.5, was mixed on ice with 5 μL enzyme, 10 μl inhibitor (or 10 μl water) and 10 μL substrate (cis-aconitic acid). The following combinations of enzyme amount and substrate concentration were used for CA: 2 μg enzyme and 0.1 mM substrate, 2 μg and 0.3 mM, 3 […] and 1 mM, 5 μg and 3.0/10.0 mM. For the other inhibitors, 2 μg enzyme and 0.1/0.2/0.5 mM substrate, 3 μg and 1.0/2.0 mM, 5 μg and 5.0/10.0 mM. Incubation for 10 min at 37° C. was immediately followed by heat inactivation at 95° C. for 3 min. Protein precipitate was pelleted by centrifugation for 1 h. Supernatants were acidified with 100 μL 100 mM H3PO4.

Another data set addresses T2, ACOD1 (Homo sapiens, UniProt A6NK06).
T2 construct: THP1 were differentiated with PMA and then stimulated with LPS/IFNγ for 24 hours; endogenous in cells; host or cells: THP1 (PMA-differentiated, LPS/IFNγ-stimulated)
T2 sequence (A6NK06 1-481): T1 sequence (A6NK06 1-481)
Put plainly: Cellular ACOD1 inhibition: intracellular itaconate in PMA-differentiated THP1 stimulated with LPS/IFNγ (HPLC-MS/MS). As to conditions: compared with citraconic acid. The data set is classed as cell-based. Here is the method: FIG. 9: Ethyl homologue of the methyl group of citraconate enhances ACOD1 inhibition in a cellular assay. […] ACOD1 activity was assessed by measuring intracellular itaconate concentrations by HPLC-MS/MS as described in (Winterhoff,
Chen et al Metabolites 2021). IC50=inhibitory concentration 50%; CC50 =cytotoxic concentration 50%; SI=selectivity index=CC50/IC50.
Methylation of the […] of citraconate thus enhances ACOD1 inhibition in a cellular assay. […] ACOD1 activity was assessed by measuring intracellular itaconate concentrations by HPLC-MS/MS as described in Winterhoff, Chen et al (Metabolites 2021).

Data set [1] concerns mitochondrial ROS in NRF2−/− human vascular endothelial cells. Put plainly: Mitochondrial ROS in human vascular endothelial cells infected with human coronavirus 229E (flow cytometry). The data set is classed as cell-based. As to conditions: NRF2−/− cells infected with human coronavirus 229E, 24 h after infection, co-incubation. As for the experimental part: FIG. 10: (Z)-2-Ethylbut-2-enedioic acid maintains anti-oxidative properties. Wild-type or NRF2−/−human vascular endothelial cells were infected with human coronavirus 229E (a low pathogenic, seasonal strain), and mitochondrial ROS levels were measured by flow cytometry 24 h after infection.
Maintenance of anti-ROS activity of (Z)-2-ethylbut-2-enedioic acid (“ethylcitraconic acid”; Formula VIII) is shown in a model of infection of cells by a human coronavirus 229E, a low pathogenic CoV strain. Despite the methylation of CA evident in Formel VIII (a methylation that could theoretically lead to loss of electrophilicity), the compound (Z)-2-Ethylbut-2-enedioic acid maintains anti-oxidative properties. Wild-type or NRF2−/−human vascular endothelial cells were infected with human coronavirus 229E (a low pathogenic, seasonal strain), and mitochondrial ROS levels were measured by flow cytometry 24 h after infection.

In data set [2] the test system is CXCL10 mRNA (encoding IP-10). Put plainly: CXCL10 mRNA expression in influenza A virus-infected dTHP1 cells (RT-qPCR). The data set is classed as cell-based, human. The note with it: dTHP1 infected with influenza A virus PR8M, MOI 1, 12 h after infection; increasing concentrations; compared among CA, IA, MA.
The test system of data set [3] is reactive oxygen species (ROS) in dTHP1 cells. The experiment in a line: Mitochondrial ROS in influenza A virus-infected dTHP1 cells (MitoSox Red, flow cytometry). The data set is classed as cell-based, human. As to conditions: dTHP1 infected with influenza A virus, 10 mM compound, 12 h after infection. Here is the method:
dTHP1 Cells were seeded at a density of 2×10^5 cells per well in a 12-well plate and infected with influenza A virus at an MOI of 1. Mitochondrial ROS were measured 12 h after infection. Cells were incubated for 5 min with medium containing 5 μM of MitoSox Red (mitochondrial superoxide indicator, Invitrogen) and were washed with PBS. Cells were then resuspended in cold PBS and mitochondrial ROS was measured via the phycoerythrin (PE) channel using a BD™ LSR-II flow cytometer.
As can be observed in FIG. 2, dTHP1 cells were infected with influenza A virus, incubated with 10 mM CA, IA, or MA, and reactive oxygen species (ROS) were measured by flow cytometry.
Background: In flow cytometry, cells or beads pass a laser one at a time.

Another data set has as its system phosphorylated STAT1. The experiment in a line: STAT1 phosphorylation immunoblot in influenza A virus-infected A549 and dTHP1 cells. As to conditions: A549 and dTHP1 cells infected with influenza A virus; anti-P-STAT1 immunoblot. In kind it is cell-based, human. As for the experimental part:
A549 and dTHP1 cells were infected with influenza A virus and treated with CA, IA or MA.
2×10^5 dTHP1 cells were infected with influenza A virus (H1N1) strain PR8M at a multiplicity of infection of 1. 12 h after infection, cells were washed in buffer, pelleted, and protein extracts resolved by gel electrophoresis and transferred to a nylon membrane. Bands corresponding to phosphorylated Stat1 protein were visualized by enhanced chemiluminescense using specific anti-P-STAT1 primary antibody and […] as secondary antibody.
As can be observed from FIG. 3, A549 and dTHP1 cells were infected with influenza A virus and treated with CA, IA or MA. […] STAT1 phosphorylation is known to be associated with inflammation, and thus CA represents an effective substance in reducing inflammation.

In data set [4] the test system is Nrf2 signaling (AKR1B10 mRNA). Put plainly: Induction of Nrf2 signaling: AKR1B10 mRNA in HaCaT cells (RT-qPCR). In kind it is cell-based, human. As to conditions: 12 hours treatment. Here is the method:
Induction was greatest by CA, intermediate by IA and lowest by MA.
The immortalized human keratinocyte cell line HaCaT was grown in RPMI 1640 medium (GIBCO Life Technologies, Karlsruhe, Germany) supplemented with 30% FCS, 100 μg/mL pen/strep, 500 μg/mL gentamycin and 1% each Glutamax and nonessential amino acid solution (NEAA; GIBCO Life Technologies, Karlsruhe, Germany). Cells were treated with the indicated concentrations of itaconate, mesaconate and citraconate for 12 hours. Cells were then washed in buffer, pelleted, and RNA was extracted for subsequent analysis of expression of AKR1B10, which is specifically activated by Nrf2 signaling in this cell line. AKR1B10 mRNA expression was determined by RT-qPCR.
Induction was greatest by CA compared to both IA and MA.
In general terms: Real-time PCR tracks product formation cycle by cycle.

Data set [5] has as its system influenza A virus (H1N1/34/PR/8M). In kind it is cell-based.
The target of data set [6] is succinate dehydrogenase (SDH) (Homo sapiens, UniProt P31040). The experiment in a line: Preliminary data on binding to succinate dehydrogenase.
Chain of succinate dehydrogenase (SDH) (P31040 43-664): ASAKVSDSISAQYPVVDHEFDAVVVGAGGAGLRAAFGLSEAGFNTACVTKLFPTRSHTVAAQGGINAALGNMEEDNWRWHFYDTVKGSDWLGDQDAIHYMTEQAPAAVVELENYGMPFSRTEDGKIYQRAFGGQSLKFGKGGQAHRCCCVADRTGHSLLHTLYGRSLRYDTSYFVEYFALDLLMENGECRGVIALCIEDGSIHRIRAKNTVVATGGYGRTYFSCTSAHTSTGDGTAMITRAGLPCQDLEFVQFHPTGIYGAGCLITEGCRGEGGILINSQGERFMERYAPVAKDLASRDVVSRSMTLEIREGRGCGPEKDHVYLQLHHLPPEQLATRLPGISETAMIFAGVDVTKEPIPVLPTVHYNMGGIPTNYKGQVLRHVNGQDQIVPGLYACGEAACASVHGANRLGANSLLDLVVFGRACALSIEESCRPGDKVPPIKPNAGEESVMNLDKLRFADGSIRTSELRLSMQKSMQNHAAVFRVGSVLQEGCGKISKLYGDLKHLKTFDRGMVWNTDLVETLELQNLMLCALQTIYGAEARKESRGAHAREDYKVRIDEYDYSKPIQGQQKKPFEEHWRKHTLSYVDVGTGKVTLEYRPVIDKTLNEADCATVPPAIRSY
Chain of succinate dehydrogenase (SDH) (P21912 29-280 partner): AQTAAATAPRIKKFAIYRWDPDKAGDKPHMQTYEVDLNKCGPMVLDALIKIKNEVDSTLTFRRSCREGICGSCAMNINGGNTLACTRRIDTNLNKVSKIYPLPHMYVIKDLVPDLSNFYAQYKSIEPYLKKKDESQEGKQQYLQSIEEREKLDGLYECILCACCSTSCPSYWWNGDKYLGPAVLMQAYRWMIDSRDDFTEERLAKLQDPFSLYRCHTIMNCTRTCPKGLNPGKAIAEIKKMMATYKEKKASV
Chain of succinate dehydrogenase (SDH) (Q99643 30-169 partner): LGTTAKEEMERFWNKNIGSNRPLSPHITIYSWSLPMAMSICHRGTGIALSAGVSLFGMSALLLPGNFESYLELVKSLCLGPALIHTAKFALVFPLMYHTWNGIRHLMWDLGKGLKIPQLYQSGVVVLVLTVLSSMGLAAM
Chain of succinate dehydrogenase (SDH) (O14521 57-159 partner): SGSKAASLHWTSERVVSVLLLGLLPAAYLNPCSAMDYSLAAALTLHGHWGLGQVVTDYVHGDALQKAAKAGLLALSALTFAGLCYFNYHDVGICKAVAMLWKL

The term Ki denotes the equilibrium dissociation constant of an inhibitor or competing ligand from its target. In the case of `O=C(O)/C=C(\C(=O)O)c1ccccc1` [2-phenylmaleic acid, 2-Phenylmaleic acid], at purified hACOD1, the Ki was found to be 60 ± 30 µM.

For `CC1CCC(C(=O)O)=C1C(=O)O` (centres unmarked) [3-Methyl-cyclopent-1-ene-1,2-dicarboxylic acid], the Ki on purified hACOD1 was 0.335 µM.

Turning to `CC/C(=C/C(=O)O)C(=O)O` [(Z)-2-ethylbut-2-enedioic acid], at purified hACOD1, the Ki is 0.235 ± 0.021 µM. In addition, at ACOD1, the Cytotoxicity result is “remains the same” and the “Selectivity index (CC50/IC50)” value is on record as “increases”. Also, at ACOD1 (dTHP1, LPS/IFNγ 24 hours, intracellular itaconate), the “ACOD1 inhibition in cellular model” value was “increased ACOD1 inhibition”. In addition, in data set [1], the “Mitochondrial ROS levels” value is given as “reduced to levels seen in uninfected WT cells”.

On to `C/C(=C/C(=O)O)C(=O)O` [citraconic acid], for which, in [2], the “Reduction of CXCL10 mRNA” value is given as “greatest”. The “Reduction of reactive oxygen species (ROS)” value in data set [3] is “significant reduction”. Moreover, in the data set on phosphorylated STAT1, the STAT1 phosphorylation result is “reduced STAT1 phosphorylation”. Also, the “Induction of AKR1B10 mRNA (Nrf2 signaling)” value (shortened to “Induction of AKR1B10 mRNA”) in [4] is recorded as “greatest”. In addition, in [5], the “Viral RNA (hemagglutinin [HA] mRNA)” value is “not influenced” and the “Viral titres in culture supernatants” value is “significantly reduced”. In addition, the “Direct binding to SDH” value in data set [6] was “does not directly bind SDH”.

Regarding `O=C(O)C1=C(C(=O)O)CCC1` [cyclopent-1-ene-1,2-dicarboxylic acid, Cyclopent-1-ene-1,2-dicarboxylic acid], the Ki at purified hACOD1 came out at 39 ± 2 µM.

Regarding `C=C(CC(=O)O)C(=O)O` [itaconic acid], the “Reduction of reactive oxygen species (ROS)” value in [3] is reported as “significant reduction”. Moreover, the STAT1 phosphorylation result in the data set on phosphorylated STAT1 is on record as “reduced STAT1 phosphorylation”. In addition, the “Induction of AKR1B10 mRNA” value in [4] is listed as “intermediate”.

For the compound `C/C(=C\C(=O)O)C(=O)O` [mesaconic acid], in the data set with phosphorylated STAT1, the STAT1 phosphorylation entry is given as “reduced STAT1 phosphorylation”. For the same compound, the “Induction of AKR1B10 mRNA” value in data set [4] is on record as “lowest”.
